This is an account of results in patent US8735406B2, “8-oxodihydropurine derivative” (Dainippon Sumitomo Pharma Co., Ltd., priority 2009, dated 2014).

SMILES strings stand for the structures.

The assay concerns the target T1, FAAH (Rattus norvegicus, UniProt P97612).
T1 construct: Preparation of Rat Brain Membranes Preparations (FAAH Enzyme Solution); from tissue; host or cells: rat cerebrum (brain membrane preparation)
T1 sequence (P97612 1-579): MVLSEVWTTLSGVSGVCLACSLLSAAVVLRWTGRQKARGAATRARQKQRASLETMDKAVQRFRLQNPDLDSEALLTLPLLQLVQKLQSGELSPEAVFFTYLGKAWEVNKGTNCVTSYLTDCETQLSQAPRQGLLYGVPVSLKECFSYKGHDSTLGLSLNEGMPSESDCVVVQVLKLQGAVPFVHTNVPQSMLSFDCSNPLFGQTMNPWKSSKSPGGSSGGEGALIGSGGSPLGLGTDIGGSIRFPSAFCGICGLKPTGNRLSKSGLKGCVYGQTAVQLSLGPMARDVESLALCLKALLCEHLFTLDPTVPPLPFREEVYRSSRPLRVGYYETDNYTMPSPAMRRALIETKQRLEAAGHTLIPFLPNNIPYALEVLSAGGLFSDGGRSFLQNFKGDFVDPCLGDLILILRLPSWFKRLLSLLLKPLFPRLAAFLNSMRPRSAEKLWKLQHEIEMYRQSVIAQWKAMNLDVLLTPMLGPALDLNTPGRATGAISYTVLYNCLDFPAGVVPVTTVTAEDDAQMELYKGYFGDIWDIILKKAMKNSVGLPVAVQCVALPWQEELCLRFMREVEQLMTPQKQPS
Nature of the assay: Determination of FAAH inhibitory activity in rat (rat brain membrane preparations, [3H]-anandamide hydrolysis). The format is biochemical. Conditions: rat brain membrane preparations; for inhibition at 0.1 µM: 100 nM test substance, read-out: FAAH Inhibition, Inhibition Rate at 100 nM; for IC50: test substance 0.1 nM to 1 μM, read-out: FAAH Inhibition IC50. Put shortly: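 Compounds tested from 0.1 nM to 1 μM to derive IC50 against FAAH hydrolysis in rat brain membrane preparations (100 μg/mL). A 10-min 37 °C preincubation was followed by 10 min with [3H]-anandamide (2 nM) mixed with 2 μM unlabelled anandamide. Radioactive ethanolamine was extracted into the water/methanol layer and counted.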

With `COc1cccc(-c2ncc3c(n2)n(C)c(=O)n3C(=O)N(C)CCOCC2CC2)c1` [Example 116, N-[2-(Cyclopropylmethoxy)ethyl]-2-(3-methoxyphenyl)-N,9-dimethyl-8-oxo-8,9-dihydro-7H-purine-7-carboxamide], the inhibition at 0.1 µM came out at 110% and the IC50 was found to be 2 nM.

For the molecule `COc1cccc(-c2ncc3c(n2)n(C)c(=O)n3C(=O)N(C)CCC2CCOCC2)c1` [Example 117, 2-(3-Methoxyphenyl)-N,9-dimethyl-8-oxo-N-[2-(tetrahydro-2H-pyran-4-yl)ethyl]-8,9-dihydro-7H-purine-7-carboxamide], the inhibition at 0.1 µM amounted to 107% and the IC50 was 4 nM.

On to `COc1ccc(CCC2CCN(C(=O)n3c(=O)n(C)c4nc(-c5cccc(OC)c5)ncc43)CC2)cc1` [Example 118, 2-(3-Methoxyphenyl)-7-({4-[2-(4-methoxyphenyl)ethyl]piperidin-1-yl}carbonyl)-9-methyl-7,9-dihydro-8H-purine-8-one], for which the inhibition at 0.1 µM amounted to 103% and the IC50 was found to be 5 nM.

As for `COCCC1CCN(C(=O)n2c(=O)n(C)c3nc(-c4cccc(OC)c4)ncc32)CC1` [Example 119, 7-{[4-(2-Methoxyethyl)piperidin-1-yl]carbonyl}-2-(3-methoxyphenyl)-9-methyl-7,9-dihydro-8H-purine-8-one], the inhibition at 0.1 µM was determined as 100% and the IC50 turned out to be 7 nM.

Take `Cn1c(=O)n(C(=O)N2CCN(c3ccccc3)CC2)c2cnc(-c3ccccc3)nc21` [Example 120, 9-Methyl-2-phenyl-7-[(4-phenylpiperazin-1-yl)carbonyl]-7,9-dihydro-8H-purine-8-one]: the inhibition at 0.1 µM was 101% and the IC50 was determined as 11 nM.

Consider `COc1cccc(N2CCN(C(=O)n3c(=O)n(C)c4nc(-c5ccccc5)ncc43)CC2)c1` [Example 121, 7-{[4-(3-Methoxyphenyl)piperazin-1-yl]carbonyl}-9-methyl-2-phenyl-7,9-dihydro-8H-purine-8-one], for which the inhibition at 0.1 µM was 98% and the IC50 came to 42 nM.

As to `COc1ccccc1N1CCN(C(=O)n2c(=O)n(C)c3nc(-c4ccccc4)ncc32)CC1` [Example 122, 7-{[4-(2-Methoxyphenyl)piperazin-1-yl]carbonyl}-9-methyl-2-phenyl-7,9-dihydro-8H-purine-8-one], the inhibition at 0.1 µM is 97% and the IC50 came to 35 nM.

With `Cn1c(=O)n(C(=O)N2CCN(c3ccc(F)cc3)CC2)c2cnc(-c3ccccc3)nc21` [Example 123, 7-{[4-(4-Fluorophenyl)piperazin-1-yl]carbonyl}-9-methyl-2-phenyl-7,9-dihydro-8H-purine-8-one], the inhibition at 0.1 µM is 101% and the IC50 turned out to be 4 nM.

As to `Cn1c(=O)n(C(=O)N2CCN(c3cccc(F)c3)CC2)c2cnc(-c3ccccc3)nc21` [Example 124, 7-{[4-(3-Fluorophenyl)piperazin-1-yl]carbonyl}-9-methyl-2-phenyl-7,9-dihydro-8H-purine-8-one], the inhibition at 0.1 µM was 101% and the IC50 is 6 nM.

Turning to `Cn1c(=O)n(C(=O)N2CCN(c3ccccc3F)CC2)c2cnc(-c3ccccc3)nc21` [Example 125, 7-{[4-(2-Fluorophenyl)piperazin-1-yl]carbonyl}-9-methyl-2-phenyl-7,9-dihydro-8H-purine-8-one], the inhibition at 0.1 µM amounted to 96% and the IC50 came out at 30 nM.

On to `Cn1c(=O)n(C(=O)N2CCN(c3ccc(Cl)cc3)CC2)c2cnc(-c3ccccc3)nc21` [Example 126, 7-{[4-(4-Chlorophenyl)piperazin-1-yl]carbonyl}-9-methyl-2-phenyl-7,9-dihydro-8H-purine-8-one], for which the inhibition at 0.1 µM is 99% and the IC50 came to 7 nM.

Turning to `Cn1c(=O)n(C(=O)N2CCN(c3ccccc3Cl)CC2)c2cnc(-c3ccccc3)nc21` [Example 127, 7-{[4-(2-Chlorophenyl)piperazin-1-yl]carbonyl}-9-methyl-2-phenyl-7,9-dihydro-8H-purine-8-one], the inhibition at 0.1 µM was 94% and the IC50 is 50 nM.

On to `Cc1ccc(N2CCN(C(=O)n3c(=O)n(C)c4nc(-c5ccccc5)ncc43)CC2)cc1` [Example 128, 9-Methyl-7-{[4-(4-methylphenyl)piperazin-1-yl]carbonyl}-2-phenyl-7,9-dihydro-8H-purine-8-one], for which the inhibition at 0.1 µM amounted to 99% and the IC50 was 7 nM.

For the molecule `Cc1cccc(N2CCN(C(=O)n3c(=O)n(C)c4nc(-c5ccccc5)ncc43)CC2)c1` [Example 129, 9-Methyl-7-{[4-(3-methylphenyl)piperazin-1-yl]carbonyl}-2-phenyl-7,9-dihydro-8H-purine-8-one], the inhibition at 0.1 µM worked out at 98% and the IC50 is 7 nM.

Regarding `Cc1ccccc1N1CCN(C(=O)n2c(=O)n(C)c3nc(-c4ccccc4)ncc32)CC1` [Example 130, 9-Methyl-7-{[4-(2-methylphenyl)piperazin-1-yl]carbonyl}-2-phenyl-7,9-dihydro-8H-purine-8-one], the inhibition at 0.1 µM is 94% and the IC50 was 42 nM.

For `CCOc1ccc(N2CCN(C(=O)n3c(=O)n(C)c4nc(-c5ccccc5)ncc43)CC2)cc1` [Example 131, 7-{[4-(4-Ethoxyphenyl)piperazin-1-yl]carbonyl}-9-methyl-2-phenyl-7,9-dihydro-8H-purine-8-one], the inhibition at 0.1 µM amounted to 99% and the IC50 is 4 nM.

For `Cn1c(=O)n(C(=O)N2CCN(c3ccc(C#N)cc3)CC2)c2cnc(-c3ccccc3)nc21` [Example 132, 4-{4-[(9-Methyl-8-oxo-2-phenyl-8,9-dihydro-7H-purine-7-yl)carbonyl]piperazin-1-yl}benzonitrile], the inhibition at 0.1 µM amounted to 99% and the IC50 stood at 6 nM.

With `CC(=O)c1ccc(N2CCN(C(=O)n3c(=O)n(C)c4nc(-c5ccccc5)ncc43)CC2)cc1` [Example 133, 7-{[4-(4-Acetylphenyl)piperazin-1-yl]carbonyl}-9-methyl-2-phenyl-7,9-dihydro-8H-purine-8-one], the inhibition at 0.1 µM turned out to be 100% and the IC50 was 6 nM.

On to `Cn1c(=O)n(C(=O)N2CCN(c3ccc(C(F)(F)F)cc3)CC2)c2cnc(-c3ccccc3)nc21` [Example 134, 9-Methyl-2-phenyl-7-({4-[4-(trifluoromethyl)phenyl]piperazin-1-yl}carbonyl)-7,9-dihydro-8H-purine-8-one], for which the inhibition at 0.1 µM amounted to 96% and the IC50 came out at 7 nM.

Consider `COc1ccc(N2CCN(C(=O)n3c(=O)n(C)c4nc(-c5ccccc5)ncc43)CC2)cc1` [Example 135, 7-{[4-(4-Methoxyphenyl)piperazin-1-yl]carbonyl}-9-methyl-2-phenyl-7,9-dihydro-8H-purine-8-one], for which the inhibition at 0.1 µM came to 99% and the IC50 stood at 5 nM.

Consider `COc1cccc(-c2ncc3c(n2)n(C)c(=O)n3C(=O)N2CCN(c3ccc(F)cc3)CC2)c1` [Example 136, 7-{[4-(4-Fluorophenyl)piperazin-1-yl]carbonyl}-2-(3-methoxyphenyl)-9-methyl-7,9-dihydro-8H-purine-8-one], for which the inhibition at 0.1 µM is 99% and the IC50 stood at 3 nM.

On to `COc1cccc(-c2ncc3c(n2)n(C)c(=O)n3C(=O)N2CCN(c3cccc(F)c3)CC2)c1` [Example 137, 7-{[4-(3-Fluorophenyl)piperazin-1-yl]carbonyl}-2-(3-methoxyphenyl)-9-methyl-7,9-dihydro-8H-purine-8-one], for which the inhibition at 0.1 µM is 98% and the IC50 amounted to 5 nM.

For the molecule `COc1cccc(-c2ncc3c(n2)n(C)c(=O)n3C(=O)N2CCN(c3ccc(C)cc3)CC2)c1` [Example 138, 2-(3-Methoxyphenyl)-9-methyl-7-{[4-(4-methylphenyl)piperazin-1-yl]carbonyl}-7,9-dihydro-8H-purine-8-one], the inhibition at 0.1 µM was 99% and the IC50 came to 6 nM.

Regarding `COc1cccc(-c2ncc3c(n2)n(C)c(=O)n3C(=O)N2CCN(c3cccc(C)c3)CC2)c1` [Example 139, 2-(3-Methoxyphenyl)-9-methyl-7-{[4-(3-methylphenyl)piperazin-1-yl]carbonyl}-7,9-dihydro-8H-purine-8-one], the inhibition at 0.1 µM is 99% and the IC50 stood at 6 nM.

With `COc1cccc(-c2ncc3c(n2)n(C)c(=O)n3C(=O)N2CCN(c3ccccc3)CC2)c1` [Example 140, 2-(3-Methoxyphenyl)-9-methyl-7-[(4-phenylpiperazin-1-yl)carbonyl]-7,9-dihydro-8H-purine-8-one], the inhibition at 0.1 µM turned out to be 99% and the IC50 is 7 nM.

Take `CCOc1ccc(N2CCN(C(=O)n3c(=O)n(C)c4nc(-c5cccc(OC)c5)ncc43)CC2)cc1` [Example 141, 7-{[4-(4-Ethoxyphenyl)piperazin-1-yl]carbonyl}-2-(3-methoxyphenyl)-9-methyl-7,9-dihydro-8H-purine-8-one]: the inhibition at 0.1 µM is 100% and the IC50 was 4 nM.
